Source: patent publication US6596889B1, “Nitrates of bis-platinum complexes with polyamine ligands” (Novuspharma S.p.A., priority 1999, dated 2003)
Counter-ions that a name gives are not always drawn.

Test: HPLC stability following heating at 40° C. for 12 days under atmospheric pressure
Format: physicochemical
Experimental: column: Lichrospher RP8 (5 μm), 125×4 mm
The following table reports the HPLC data concerning the stability of Compound 1 and of Compound A (prepared as described in example 16 of WO 98/03519) following heating at 40° C. for 12 days under atmospheric pressure.
The used chromatographic method is that described in Example 3 and Example 4. The values of […] are in percent area.

[1] = 12 days 40° C., atmospheric pressure

Compound | HPLC mean peak area [1] [percent area] | main impurity, retention time 7 min, HPLC area [1] [percent area] | main impurity, retention time 8 min, HPLC area [1] [percent area] | main impurity, retention time 12 min, HPLC area [1] [percent area] | main impurity, retention time 14 min, HPLC area [1] [percent area] | main impurity, retention time 30 min, HPLC area [1] [percent area] | main impurity, retention time 31 min, HPLC area [1] [percent area] | HPLC mean peak area (t = 0) [percent area] | main impurity, retention time 7 min, HPLC area (t = 0) [percent area] | main impurity, retention time 8 min, HPLC area (t = 0) [percent area] | main impurity, retention time 12 min, HPLC area (t = 0) [percent area] | main impurity, retention time 14 min, HPLC area (t = 0) [percent area] | main impurity, retention time 30 min, HPLC area (t = 0) [percent area] | main impurity, retention time 31 min, HPLC area (t = 0) [percent area]
bis{trans(diammine)(chloro)platinum(II)}-μ-(1,12-diamino-4,9-diazadodecane-N^1, N^12)dichloride salt.2HCl [Compound A] | 89.8 | 0.8 | 1.6 | 0.6 | 0.8 | 2.8 | 1.7 | 92.5 | 0.1 | 0.2 | 0.3 | 1.3 | 2.3 | 0.7
[NH2][Pt+]([NH2])([Cl])[NH]CCC[NH2+]CCCC[NH2+]CCC[NH][Pt+]([NH2])([NH2])[Cl] [Compound 1, bis{trans(diammine)(chloro)platinum(II)}-μ-(1,12-diamino-4,9-diazadodecane-N^1, N^12) dinitrate salt.2HNO3] | 98.4 | 0.1 | 0.1 | 0.2 | 0.9 | <0.1 | 0.2 | 98.5 | 0.1 | 0.1 | 0.1 | 0.8 | <0.1 | –
